Data from US10487113B2, “Peptide having activity to improve skin condition and use thereof” (CAREGEN CO., LTD., priority 2014, dated 2019).

What was measured:
[1] = tested on: Human primary dermal fibroblast cells; test: Human primary dermal fibroblast cell proliferation, SRB assay; type: cell-based; conditions: 1 ng/ml to 1 ug/ml, 72 hours, SRB assay OD 590 nm
Protocol: Human primary dermal fibroblast cells were treated with CG-Renuin (peptide of SEQ ID NO: 1) and CG-Noverin (peptide of SEQ ID NO: 2) at different concentrations (1 ng/ml to 1 ug/ml), and the cells were incubated for 72 hours in a cell incubator. Then, the cell proliferation change by the peptide treatment was analyzed through SRB assay (OD 590 nm).

NIH3T3 cells = test: Western blotting of pERK and p38 in UVA-irradiated cells; type: cell-based; conditions: 1-10 ug/ml, 30 minutes, then UVA (8 J), 24 hours
Protocol: NIH3T3 cells ([…]) were seeded in a 6-well plate at a cell density of 2×10^5 cells/well, followed by incubation overnight, and then the cells were treated with CG-Renuin or CG-Noverin peptides at different concentrations (1-10 ug/ml), followed by incubation at 37 °C for 30 minutes. Then, the cells were irradiated with UVA (8 J), followed by incubation for 24 hours. The lysates were obtained by the treatment with the cell lysis buffer, followed by protein quantification. For the confirmation of the expression of cellular activating factors, western blotting was conducted using the anti-pERK (Santa Cruz Biotechnology, USA) and p38 (Santa Cruz Biotechnology, USA) antibodies.

MMP2 [2] = molecular target: T1, MMP2 (Homo sapiens, UniProt P08253); test: rhMMP2 inhibition by gelatin zymography; type: biochemical; conditions: rhMMP2 mixed with peptide 0.1 ug/ml and 1 ug/ml, room temperature, 1 hour
T1 sequence (P08253 110-660): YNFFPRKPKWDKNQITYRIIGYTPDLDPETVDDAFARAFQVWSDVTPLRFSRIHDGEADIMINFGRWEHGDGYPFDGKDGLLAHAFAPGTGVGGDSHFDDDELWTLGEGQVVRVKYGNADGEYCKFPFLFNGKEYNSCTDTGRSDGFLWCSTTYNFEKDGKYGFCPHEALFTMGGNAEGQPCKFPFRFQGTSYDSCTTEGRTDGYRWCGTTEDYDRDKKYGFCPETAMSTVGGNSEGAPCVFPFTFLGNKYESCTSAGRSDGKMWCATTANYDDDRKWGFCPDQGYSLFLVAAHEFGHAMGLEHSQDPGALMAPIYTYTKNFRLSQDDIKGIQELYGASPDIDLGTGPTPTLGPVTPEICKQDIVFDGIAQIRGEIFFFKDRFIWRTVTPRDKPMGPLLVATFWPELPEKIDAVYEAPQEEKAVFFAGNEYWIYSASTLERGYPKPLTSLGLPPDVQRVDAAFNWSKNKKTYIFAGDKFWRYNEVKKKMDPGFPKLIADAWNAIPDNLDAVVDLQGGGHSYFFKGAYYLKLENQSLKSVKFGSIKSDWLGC
Protocol: (§1) After rhMMP2 was mixed with the peptides at different concentrations (0.1 ug/ml and 1 ug/ml), the incubation was conducted at room temperature for 1 hour. Then, in order to investigate the expression of rhMMP2 through gelatin zymography, protein electrophoresis (SDS-PAGE) was conducted using gelatin (2 mg/ml) as a substrate. After the electrophoresis, the gel was immersed in 2.5% Triton X-100 for 30 minutes, and then incubated in a buffer containing 50 mM Tris-HCl, 0.2 M NaCl, 5 mM CaCl2), and 1% Triton X-100 at 37 °C for 24 hours. After the incubation, the gel was stained with Coo-massie Brilliant Blue R250 (Sigma), and de-stained with a solution containing 5% methanol, 7.5% acetic acid, and distilled water. In addition, the bands formed by gelatin hydrolysis were observed.

MMP2 [3] = molecular target: T2, MMP2 (Mus musculus, UniProt P33434); test: MMP2 activity in TNF-α-induced fibroblast cells (NIH3T3), gelatin zymography; type: cell-based; conditions: NIH3T3, MMP2 induced by TNF-α; 10, 100, 1000 ng/ml, 24 hours
T2 construct: endogenous in cells; host or cells: NIH3T3
Protocol: as §1, with “Fibroblast cells (NIH3T3) were seeded in a 24-well plate at a cell density of 3×10^4 cells/well. The next day, the cells were incubated in serum-less medium for 24 hours, and the expression and activation of MMP2 were induced by TNF-α. The cells were treated” for “After rhMMP2 was mixed”, “CG-Renuin or CG-Noverin” for “the peptides”, “(10 ng/ml, 100 ng/ml, 1000 ng/ml), followed by incubation for 24 hours. The supernatant obtained from centrifugation at 14,000×g for 10 minutes was incubated,” for “(0.1 ug/ml”, “then,” for “1 ug/ml), the incubation was conducted at room temperature for 1 hour. Then,”, “MMP2” for “rhMMP2”

HaCaT keratinocytes = test: Melanosome transfer: phagocytosis assay with fluorescent bioparticles; type: cell-based; conditions: trypsin 1 μg/ml induction, peptide 1 μg/ml, 48 hours; trypsin treatment group considered 100%
Protocol: In order to observe melanosome transfer, phagocytosis assay was conducted using HaCaT keratinocytes. Bioparticles with a fluorescence substance attached thereto were used as a substance for phagocytosis. The cells were seeded in a 96-well tissue culture plate at 3×10^3 cells/well, incubated for 24 hours, and then incubated in a serum-free medium for 6 hours. Thereafter, for the induction of phagocytosis, the cells were treated with 1 μg/ml of trypsin, and then the cells were treated with 1 μg/ml of peptides for 48 hours. As a result, it was confirmed through a fluorescent microscope that the bioparticles were phagocytized into keratocytes. From the observation when the data with respect to a phagocytosis induction group, that is, a trypsin treatment group, were considered to be 100%, it was verified that phagocytosis was inhibited in the CG-Noverin treatment group and the CG-Renuin treatment group.

MMP2 [4] = molecular target: T1, MMP2; test: Inhibition of MMP2-induced collagen degradation in human dermal fibroblast (HDF) cells, pro-collagen type I kit; type: cell-based; design: purchased SIGMA/USA; host or cells: added to human dermal fibroblast (HDF) cells; conditions: MMP2 20 ng/ml co-treatment, 6 hours, or after IGF-1 100 ng/ml, 4 hours, pro-collagen type I in supernatant
Protocol: Human dermal fibroblast (HDF) cells (3×10^4) were seeded in a 24-well plate. The next day, the cells were incubated in 5% serum medium for 42 hours, treated with MMP2 (20 ng/ml, SIGMA/USA) and CG-Noverin or CG-Renuin, respectively, and incubated for 6 hours. The supernatant obtained from centrifugation at 14,000×g for 10 minutes was analyzed using the pro-collagen type I kit (RnD system/USA).
Human dermal fibroblast (HDF) cells (3×10^4) were seeded in a 24-well plate, and then the next day, the medium was exchanged with a 5% serum medium. The cells were treated with IGF-1 (100 ng/ml, Sigma/USA), followed by incubation for 44 hours, and then the cells were treated with MMP2 (20 ng/ml) and CG-Noverin or CG-Renuin, respectively, followed by incubation for 4 hours. The supernatant obtained from centrifugation at 14,000×g for 10 minutes was analyzed using the pro-collagen type I kit.

T2 sequence (P33434 110-662): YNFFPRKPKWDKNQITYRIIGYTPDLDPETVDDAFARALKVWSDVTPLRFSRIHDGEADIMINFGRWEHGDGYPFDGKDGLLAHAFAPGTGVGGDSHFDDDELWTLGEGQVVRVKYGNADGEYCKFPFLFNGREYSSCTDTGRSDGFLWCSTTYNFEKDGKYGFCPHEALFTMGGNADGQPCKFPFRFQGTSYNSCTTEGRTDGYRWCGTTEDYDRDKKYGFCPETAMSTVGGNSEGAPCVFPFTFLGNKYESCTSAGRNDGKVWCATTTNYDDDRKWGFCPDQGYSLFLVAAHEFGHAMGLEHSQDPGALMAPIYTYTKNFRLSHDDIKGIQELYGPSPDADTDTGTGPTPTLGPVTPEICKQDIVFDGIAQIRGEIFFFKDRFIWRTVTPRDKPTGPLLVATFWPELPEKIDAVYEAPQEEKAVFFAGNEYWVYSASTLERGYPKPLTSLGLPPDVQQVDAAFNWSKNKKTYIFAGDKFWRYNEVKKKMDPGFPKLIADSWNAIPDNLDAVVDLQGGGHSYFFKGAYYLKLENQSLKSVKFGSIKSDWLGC

MMP2 activity (gelatin zymography) (MMP2 [2]) | MMP2 activity in fibroblast cells (MMP2 [3]) | Substance | proliferation of human primary dermal fibroblast cells [1] | phosphorylation of ERK (NIH3T3 cells) | phosphorylation of P38 (NIH3T3 cells) | phagocytosis (melanosome transfer) (HaCaT keratinocytes) | collagen degradation induced by MMP2 (MMP2 [4])
directly inhibited | inhibited | NH2-Cys-Thr-Lys-Ile-Tyr-Asp-Pro-Val-Cys-COOH (H-CTKIYDPVC-OH; cysteine pairing not given here) [CG-Renuin] | increased depending on the treatment amount | increased | increased | inhibited | inhibited the induction of collagen degradation
directly inhibited | inhibited | NH2-Cys-Pro-Arg-His-Phe-Asn-Pro-Val-Cys-COOH (H-CPRHFNPVC-OH; cysteine pairing not given here) [CG-Noverin] | increased depending on the treatment amount | increased | increased | inhibited | inhibited the induction of collagen degradation
